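Compound exposure: 48 hours, 5 concentrations, 96-well plates. GI50 marks 50% less growth. TGI denotes the concentration required for complete inhibition of growth.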
Key:
Test in all cases: DTP human tumour cell line panel, 48 h
RPMI-8226 leukemia = tested on: RPMI-8226 leukemia
A549 NSCLC = tested on: A549 NSCLC
SK-OV-3 ovarian = tested on: SK-OV-3 ovarian
UO-31 renal = tested on: UO-31 renal
CAKI-1 renal = tested on: CAKI-1 renal
SNB-75 CNS = tested on: SNB-75 CNS
SF-295 CNS = tested on: SF-295 CNS
SF-268 CNS = tested on: SF-268 CNS
HOP-62 NSCLC = tested on: HOP-62 NSCLC
TK-10 renal = tested on: TK-10 renal
OVCAR-5 ovarian = tested on: OVCAR-5 ovarian
HS 578T breast = tested on: HS 578T breast
SNB-19 CNS = tested on: SNB-19 CNS
SK-MEL-28 melanoma = tested on: SK-MEL-28 melanoma
T-47D breast = tested on: T-47D breast
UACC-62 melanoma = tested on: UACC-62 melanoma
U251 CNS = tested on: U251 CNS
HCT-116 colon = tested on: HCT-116 colon
MDA-MB-435 = tested on: MDA-MB-435
IGROV1 ovarian = tested on: IGROV1 ovarian
A498 renal = tested on: A498 renal
CCRF-CEM leukemia = tested on: CCRF-CEM leukemia
MALME-3M melanoma = tested on: MALME-3M melanoma
MCF7 breast = tested on: MCF7 breast
EKVX NSCLC = tested on: EKVX NSCLC
SK-MEL-5 melanoma = tested on: SK-MEL-5 melanoma
PC-3 prostate = tested on: PC-3 prostate
OVCAR-3 ovarian = tested on: OVCAR-3 ovarian
RXF 393 renal = tested on: RXF 393 renal
ACHN renal = tested on: ACHN renal
NCI/ADR-RES ovarian = tested on: NCI/ADR-RES ovarian
MDA-MB-231 breast = tested on: MDA-MB-231 breast
SN12C renal = tested on: SN12C renal
DU-145 prostate = tested on: DU-145 prostate
NCI-H226 lung = tested on: NCI-H226 lung
OVCAR-4 ovarian = tested on: OVCAR-4 ovarian
HT29 colon = tested on: HT29 colon
COLO 205 colon = tested on: COLO 205 colon
HCT-15 colon = tested on: HCT-15 colon
HCC-2998 colon = tested on: HCC-2998 colon
BT-549 breast = tested on: BT-549 breast
SF-539 CNS = tested on: SF-539 CNS
SK-MEL-2 melanoma = tested on: SK-MEL-2 melanoma
HL-60(TB) leukemia = tested on: HL-60(TB) leukemia
NCI-H23 lung = tested on: NCI-H23 lung
SW-620 colon = tested on: SW-620 colon
NCI-H460 lung = tested on: NCI-H460 lung
KM12 colon = tested on: KM12 colon
K-562 leukemia = tested on: K-562 leukemia
HOP-92 NSCLC = tested on: HOP-92 NSCLC
NCI-H522 lung = tested on: NCI-H522 lung
UACC-257 melanoma = tested on: UACC-257 melanoma
LOX IMVI melanoma = tested on: LOX IMVI melanoma
M14 melanoma = tested on: M14 melanoma
OVCAR-8 ovarian = tested on: OVCAR-8 ovarian
786-0 renal = tested on: 786-0 renal

## CC1SC2(CCC(c3ccccc3)CC2)N(NC(=O)c2[nH]c3ccc(F)cc3c2-c2ccccc2)C1=O (configuration not stated)
RPMI-8226 leukemia
  GI50: 0.804 µM
  TGI: 2.91 µM
A549 NSCLC
  GI50: 7.72 µM
  TGI: 46.8 µM
SK-OV-3 ovarian
  GI50: 54.3 µM
  TGI: > 100 µM
UO-31 renal
  GI50: 6.48 µM
  TGI: 33.1 µM
CAKI-1 renal
  GI50: 4.38 µM
  TGI: 24.5 µM
SNB-75 CNS
  GI50: 19.4 µM
  TGI: 42.2 µM
SF-295 CNS
  GI50: 12.1 µM
  TGI: 69 µM
SF-268 CNS
  GI50: 21.2 µM
  TGI: > 100 µM
HOP-62 NSCLC
  GI50: 4.59 µM
  TGI: 23.5 µM
TK-10 renal
  GI50: 7.57 µM
  TGI: > 100 µM
OVCAR-5 ovarian
  GI50: 18.5 µM
  TGI: 43.8 µM
HS 578T breast
  GI50: 12 µM
  TGI: 68.3 µM
SNB-19 CNS
  GI50: 26.6 µM
  TGI: > 100 µM
SK-MEL-28 melanoma
  GI50: 5.34 µM
  TGI: 18.1 µM
T-47D breast
  GI50: 14.2 µM
  TGI: > 100 µM
UACC-62 melanoma
  GI50: 6.21 µM
  TGI: 27.4 µM
U251 CNS
  GI50: 4.09 µM
  TGI: 24 µM
HCT-116 colon
  GI50: 1.94 µM
  TGI: 4.56 µM
MDA-MB-435
  GI50: 6.11 µM
  TGI: 39.3 µM
IGROV1 ovarian
  GI50: 3.89 µM
  TGI: 20 µM
A498 renal
  GI50: 13 µM
  TGI: 28.2 µM
CCRF-CEM leukemia
  GI50: 1.59 µM
  TGI: 13.4 µM
MALME-3M melanoma
  GI50: 16 µM
  TGI: 49.8 µM
MCF7 breast
  GI50: 4.78 µM
  TGI: 24.1 µM
EKVX NSCLC
  GI50: 12.4 µM
  TGI: 54.2 µM
SK-MEL-5 melanoma
  GI50: 3.85 µM
  TGI: 21.6 µM
PC-3 prostate
  GI50: 1.56 µM
  TGI: 5.34 µM
OVCAR-3 ovarian
  GI50: 4.33 µM
  TGI: 53.8 µM
RXF 393 renal
  GI50: 2.22 µM
  TGI: 7.49 µM
ACHN renal
  GI50: 3.4 µM
  TGI: 14.9 µM
NCI/ADR-RES ovarian
  GI50: 3.58 µM
  TGI: 23.4 µM
MDA-MB-231 breast
  GI50: 14.8 µM
  TGI: 44 µM
SN12C renal
  GI50: 3.56 µM
  TGI: 12.7 µM
DU-145 prostate
  GI50: 4.33 µM
  TGI: 17.8 µM
NCI-H226 lung
  GI50: 11 µM
  TGI: 29.8 µM
OVCAR-4 ovarian
  GI50: 3.87 µM
  TGI: 18.3 µM
HT29 colon
  GI50: 1.67 µM
  TGI: 4.18 µM
COLO 205 colon
  GI50: 2.96 µM
  TGI: 10.5 µM
HCT-15 colon
  GI50: 2.43 µM
  TGI: 11.1 µM
HCC-2998 colon
  GI50: 2.51 µM
  TGI: 7.05 µM
BT-549 breast
  GI50: 5.45 µM
  TGI: 34.6 µM
SF-539 CNS
  GI50: 20 µM
  TGI: 49.3 µM
SK-MEL-2 melanoma
  GI50: 14 µM
  TGI: 38.6 µM
HL-60(TB) leukemia
  GI50: 1.31 µM
  TGI: 4.53 µM
NCI-H23 lung
  GI50: 4.4 µM
  TGI: 19 µM
SW-620 colon
  GI50: 6.57 µM
  TGI: > 100 µM
NCI-H460 lung
  GI50: 4.28 µM
  TGI: 40.2 µM
KM12 colon
  GI50: 2.32 µM
  TGI: 6.91 µM
K-562 leukemia
  GI50: 2.11 µM
  TGI: 6.1 µM
HOP-92 NSCLC
  GI50: 1.33 µM
  TGI: 3.65 µM
NCI-H522 lung
  GI50: 7.21 µM
  TGI: 24.6 µM
UACC-257 melanoma
  GI50: 19 µM
  TGI: 53.9 µM
LOX IMVI melanoma
  GI50: 2.9 µM
  TGI: 14 µM
M14 melanoma
  GI50: 5.67 µM
  TGI: 21.9 µM
OVCAR-8 ovarian
  GI50: 2.87 µM
  TGI: 19 µM
786-0 renal
  GI50: 2.92 µM
  TGI: 12.2 µM

Source: PubChem BioAssay (NCI)
